{"source": "patent US20250262241A1", "about": "“METHODS TO IMPROVE STABILITY OF VIRUS TRANSDUCTION OF y8 T CELLS AND APPLICATIONS THEREOF” (UNICET BIOTECH CO. LLC., priority 2021, published 2025)", "key": {"[1]": {"molecular_target": "T1, PDK1 (Homo sapiens, UniProt O15530)", "T1 sequence (O15530 1-556)": "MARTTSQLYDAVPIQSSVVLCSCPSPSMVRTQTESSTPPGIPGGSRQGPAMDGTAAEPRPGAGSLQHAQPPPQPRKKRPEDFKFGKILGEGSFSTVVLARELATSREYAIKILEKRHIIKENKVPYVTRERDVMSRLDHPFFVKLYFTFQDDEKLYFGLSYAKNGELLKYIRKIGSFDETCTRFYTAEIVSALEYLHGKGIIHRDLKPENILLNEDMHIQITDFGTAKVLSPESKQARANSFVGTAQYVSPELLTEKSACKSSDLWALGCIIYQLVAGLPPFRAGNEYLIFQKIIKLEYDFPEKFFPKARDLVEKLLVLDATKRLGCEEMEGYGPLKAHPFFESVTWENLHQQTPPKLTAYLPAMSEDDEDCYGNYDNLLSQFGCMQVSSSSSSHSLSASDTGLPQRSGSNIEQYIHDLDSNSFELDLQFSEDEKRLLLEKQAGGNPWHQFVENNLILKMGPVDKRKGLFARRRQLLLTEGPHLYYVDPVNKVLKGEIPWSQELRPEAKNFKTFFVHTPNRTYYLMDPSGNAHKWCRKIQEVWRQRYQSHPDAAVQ", "conditions": "cited from earlier work"}, "[2]": {"molecular_target": "T2, TBK1 (Homo sapiens, UniProt Q9UHD2)", "T2 sequence (Q9UHD2 1-729)": "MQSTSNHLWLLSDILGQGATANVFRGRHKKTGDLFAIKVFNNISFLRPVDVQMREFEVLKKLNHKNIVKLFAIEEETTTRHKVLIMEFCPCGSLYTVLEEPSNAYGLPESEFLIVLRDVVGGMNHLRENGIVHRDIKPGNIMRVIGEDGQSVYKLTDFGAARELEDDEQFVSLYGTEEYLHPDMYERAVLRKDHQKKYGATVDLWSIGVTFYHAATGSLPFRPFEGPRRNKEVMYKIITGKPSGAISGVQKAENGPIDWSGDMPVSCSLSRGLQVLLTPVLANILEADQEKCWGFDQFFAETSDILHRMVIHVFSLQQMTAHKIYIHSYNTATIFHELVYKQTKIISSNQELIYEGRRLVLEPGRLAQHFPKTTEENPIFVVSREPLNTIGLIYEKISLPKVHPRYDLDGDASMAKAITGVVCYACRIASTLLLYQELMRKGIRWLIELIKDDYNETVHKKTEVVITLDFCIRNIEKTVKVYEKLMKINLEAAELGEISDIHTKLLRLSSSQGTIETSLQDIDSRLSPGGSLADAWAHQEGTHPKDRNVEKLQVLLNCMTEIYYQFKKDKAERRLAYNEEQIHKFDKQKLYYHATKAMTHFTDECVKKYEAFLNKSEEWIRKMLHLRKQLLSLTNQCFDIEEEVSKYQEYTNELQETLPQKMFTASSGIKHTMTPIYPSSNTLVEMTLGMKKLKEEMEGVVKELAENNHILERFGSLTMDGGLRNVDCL", "conditions": "cited from earlier work"}, "[3]": {"tested_on": "γδ2 T cells", "test": "Lentivirus (GFP) transduction of γδ2 T cells with or without BX795", "assay_type": "cell-based, human", "description": "VSV-G pseudotyped lentiviral vectors were applied in this method. 1×10^7 293T cells were plated into a poly-D-lysine coated 100 mm dish. Next day the cells were transfected with 6 μg of pCDH-EF1-MCS-T2A-copGFP plasmid (Addgene, Plasmid #72263) or pCDH-EF1-CAR-T2A-copGFP plasmid modified from pCDH-EF1-MCS-T2A-copGFP, 4 μg of pspAx2 (Addgene, Plasmid #12260), 2 μg of pCMV-VSV-G (Addgene, Plasmid #8454) using 30 ug PEI transfection regents. After 8 hours of transfection, the cell culture medium was changed. The supernatant were collected 48 hours and 72 hours later. Concentrated the virus with Lenti-X™ Concentrator (Takara) and monitored the virus titers by transduction of 293T cells and stored the concentrated virus in −80° C. until further use.\n(§1) For lentivirus transduction, 1×10^CFU lentivirus diluted in 200 ul PBS were added in a 24-well plate which were pre-coated with RetroNectin reagent (Takara) and centrifugated by 2,000 g for 2 hours at 32° C. After centrifugation, removed the supernatant and washed the plate with PBS three times slightly.\n(§2) The plates were incubated at 37° C., 5% CO2.\n(§3) After incubation, washed the cells with FACS buffer two times and then resuspended the cells in 200 ul FACS buffer and calculated the data by FACSCalibur (BD Biosciences). The antibodies used for γδ2 T cells were: APC anti-human CD3 (Biolegend, 300412), BV421 anti-human TCR Vδ2 (Biolegend, 331428)."}, "[4]": {"tested_on": "γδ2 T cells", "test": "Differentiation of γδ2 T cells cultured with/without BX795 (flow cytometry)", "assay_type": "cell-based, human", "description": "(§4) Wash the cells once with PBS and then staining the cells with antibodies diluted in FACS buffer (PBS+1% FBS+2.5 mM EDTA) at 4° C. for 30 min. The common volume of incubated buffer was 50 μL for 2×10^cells.\nas §3\nOn the other hand, the terminator γδ2 T cell percentage decreased from 2.595% to around 2%."}, "[5]": {"tested_on": "γδ T cell products cultured from PBMC", "assay_type": "cell-based, human", "conditions": "0.6 μM BX795, after 12 Days in vitro culture", "description": "as §4, §3\nThe calculated cell types included γδ2 T, γδ2 CD56+ T, γδ1 T, αβT, NKT, T helper, cytotoxic T, B and NK cells."}, "[6]": {"tested_on": "γδ1 T cells", "test": "CAR related lentivirus transduction of γδ1 T cells with small inhibitors", "assay_type": "cell-based, human", "conditions": "0.06 uM; control finally around 2%", "description": "as §1, §2\nTo test the application of these small molecule on improving the transduction rate of δδ1 T cells. We evaluated the transduction rate of δδ1 T cells with/without different dosage of small molecules."}, "[7]": {"tested_on": "γδ2 T cells", "test": "Exhausted marker expression of γδ2 T cells cultured with/without BX795", "assay_type": "cell-based, human", "description": "as §4, §3"}, "[8]": {"tested_on": "γδ2 T cells", "assay_type": "cell-based, human", "conditions": "0.6 uM", "description": "as §2"}}, "note": "“And” between values parts separate entries of the source, which are not always exact repeats. Identical values can stand only once.", "data": [{"substance": "BX795", "values": [{"measurement": "IC50", "setting": "[1]", "result": 6, "unit": "nM"}, {"measurement": "IC50", "setting": "[2]", "result": 6, "unit": "nM"}, {"measurement": "total positive transduced γδ2 T cells", "setting": "[3]; 0.2 μM or 0.6 μM BX795", "result": "greatly increased"}, {"measurement": "final transduction rate, 2 μM compared with 0.6 μM BX795", "setting": "[3]; 2 μM BX795", "result": "not significant"}, {"measurement": "cell number of transduced γδ2 T cells", "setting": "[3]; 2 μM or 6 μM BX795, vs control group", "result": "lower than the control group"}, {"measurement": "changes in differentiation of γδ2 T cell subtypes", "setting": "[4]; BX795 treatment vs control", "result": "No significant changes were found"}, {"measurement": "central memory γδ2 T cells percentage rate", "setting": "[4]; adding BX795, control 1.865%", "result": 4.225, "unit": "%"}, {"measurement": "terminator γδ2 T cell percentage", "setting": "[4]; adding BX795, control 2.595%", "result": "around 2%"}, {"measurement": "Central memory γδ2 cell (CD3+TCRVδ2+ CD27+CD45RA−), cell percentage of total lymphocytes", "setting": "[4]; cultured with BX795", "result": "3.88% and 4.57%"}, {"measurement": "Effector γδ2 T cell (CD3+TCRVδ2+ CD27−CD45RA−), cell percentage of total lymphocytes", "setting": "[4]; cultured with BX795", "result": "81.23% and 80.00%"}, {"measurement": "Terminator γδ2 T cell (CD3+TCRVδ2+ CD27−CD45RA+), cell percentage of total lymphocytes", "setting": "[4]; cultured with BX795", "result": "1.91% and 2.03%"}, {"measurement": "naive γδ2 T cell (CD3+TCRVδ2+ CD27+CD45RA+), cell percentage of total lymphocytes", "setting": "[4]; cultured with BX795", "result": "0.25% and 0.10%"}, {"measurement": "γδ2 CD226+T cell (CD3+TCRVδ2+CD226+), cell percentage of total lymphocytes", "setting": "[4]; cultured with BX795", "result": "87.25% and 86.59%"}, {"measurement": "γδ2 NKG2D+T cell (CD3+TCRVδ2+NKG2D+), cell percentage of total lymphocytes", "setting": "[4]; cultured with BX795", "result": "87.17% and 86.50%"}, {"measurement": "γδ2 T cell (CD3+TCRVδ2+), cell percentage of total lymphocytes", "setting": "[4]; cultured with BX795", "result": "87.25% and 86.68%"}, {"measurement": "B cell (CO3−TCRVδ2−CD19+), cell percentage of total lymphocytes", "setting": "[5]", "result": "0.27% and 0.32%"}, {"measurement": "NK cell (CD3−TCRVδ2−CD56+), cell percentage of total lymphocytes", "setting": "[5]", "result": "2.66% and 2.20%"}, {"measurement": "NKT cell (CD3+TCRVδ2−TCRVδ1−TCRαβ+CD56+), cell percentage of total lymphocytes", "setting": "[5]", "result": "0.34% and 0.31%"}, {"measurement": "T helper cell (CD3+TCRVδ2−TCRVδ1− TCRαβ+CD56−CD8−CD4+), cell percentage of total lymphocytes", "setting": "[5]", "result": "5.26% and 5.40%"}, {"measurement": "cell types of the final γδ T cell products vs control group", "setting": "[5]", "result": "comparable cell types with the control group"}, {"measurement": "αβ T cell (CD3+TCRVδ2−TCRVδ1−TCRαβ+), cell percentage of total lymphocytes", "setting": "[5]", "result": "7.22% and 7.20%"}, {"measurement": "γδ2 CD56+ T cell (CD3+TCRVδ2+ CD56+), cell percentage of total lymphocytes", "setting": "[5]", "result": "1.89% and 1.69%"}, {"measurement": "γδ2 T cell (CD3+TCRVδ2+), cell percentage of total lymphocytes", "setting": "[5]", "result": "85.93% and 86.52%"}, {"measurement": "effect on transduction rate of γδ1 T cells", "setting": "[6]", "result": "could improve the transduction rate"}, {"measurement": "cell percentage of exhausted cell types (PD-1, LAG-3, TIGIT, TIM-3)", "setting": "[7]; BX795 treatment vs control", "result": "improved the cell percentage of all the exhausted cell types slightly"}, {"measurement": "γδ2 LAG-3+ T cell (CD3+TCRVδ2+LAG-3+), cell percentage of total lymphocytes", "setting": "[7]; cultured with BX795", "result": "85.58% and 85.77%"}, {"measurement": "γδ2 PD-1+ T cell (CD3+TCRVδ2+PD-1+), cell percentage of total lymphocytes", "setting": "[7]; cultured with BX795", "result": "11.83% and 11.17%"}, {"measurement": "γδ2 T cell (CD3+TCRVδ2+), cell percentage of total lymphocytes", "setting": "[7]; cultured with BX795", "result": "85.75% and 85.94%"}, {"measurement": "γδ2 TIGIT+ T cell (CD3+TCRVδ2+TIGIT+), cell percentage of total lymphocytes", "setting": "[7]; cultured with BX795", "result": "23.24% and 26.98%"}, {"measurement": "γδ2 TIM-3+ T cell (CD3+TCRVδ2+TIM-3+), cell percentage of total lymphocytes", "setting": "[7]; cultured with BX795", "result": "84.55% and 84.91%"}, {"measurement": "cell growth of γδ2 T", "setting": "[8]", "result": "did not influence the cell growth"}]}]}
